Laboratory results as given in publication PMC7377239, “Cardiovascular Effects of Polychlorinated Biphenyls and Their Major Metabolites” (Environmental Health Perspectives, 2020).
Like-named read-outs stand apart in the source and are kept apart here.

Test system: iCell cardiomyocytes (human iPSC-derived cardiomyocytes)
Test: Intracellular Ca2+ flux / beating parameters in iCell cardiomyocytes (FLIPR tetra), 90 min or 24 h
Type: cell-based
Conditions: Homo sapiens, Cardiomyocyte, 0.00 µM = 100.00; for activity at 0.1 µM: 0.10 µM
How it was run: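 Gelatin-plated iCell cardiomyocytes (5,000/well) were dye-loaded for 2 h at 37 °C, then exposed for 90 min or 24 h to PCBs/metabolites (5× plates at 0.05–500 µM; 0.5% DMSO final) in triplicate. Ca2+ flux was read for 100 s at 8 Hz and 37 °C. Peak height, frequency, spacing CV and decay/rise ratio were vehicle-normalized and fitted with a four-parameter logistic model, with POD set at 1 SD of vehicle.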

[1] = 1.5 h, read-out: cm.amp.avg.90min
[2] = 1.5 h, read-out: cm.amp.cv.90min
[3] = 1.5 h, read-out: cm.decay.rise.90min
[4] = 1.5 h, read-out: cm.spacing.cv.90min
[5] = 24 h, read-out: cm.amp.avg.24hrs
[6] = 24 h, read-out: cm.amp.cv.24hrs
[7] = 24 h, read-out: cm.decay.rise.24hrs
[8] = 24 h, read-out: cm.spacing.cv.24hrs

For `Oc1ccc(-c2ccc(Cl)cc2)cc1` [4'-OH PCB3], the activity at 0.01 µM [1] was 95.4%, the activity at 0.01 µM [2] was 111% and the activity at 0.01 µM (1.5 h, read-out: cm.bpm.90min) was 97.8%. It also gave an activity at 0.01 µM [3] of 97.5%, an activity at 0.01 µM [4] of 120% and an activity at 0.1 µM [1] of 101%. The activity at 0.1 µM [2] was 107%, the activity at 0.1 µM (1.5 h, read-out: cm.bpm.90min) was 100% and the activity at 0.1 µM [3] was 97.1%. The activity at 0.1 µM [4] was 108%, the activity at 1 µM [1] was 105% and the activity at 1 µM [2] was 100%. For the same molecule, the activity at 1 µM (1.5 h, read-out: cm.bpm.90min) was 104%, the activity at 1 µM [3] was 95.9% and the activity at 1 µM [4] was 106%. For the same molecule, the activity at 10 µM [1] was 97.2%, the activity at 10 µM [2] was 100% and the activity at 10 µM (1.5 h, read-out: cm.bpm.90min) was 118%. It also gave an activity at 10 µM [3] of 89.6%, an activity at 10 µM [4] of 116% and an activity at 100 µM [1] of 0%. It also gave an activity at 100 µM [2] of 0%, an activity at 100 µM (1.5 h, read-out: cm.bpm.90min) of 0% and an activity at 100 µM [3] of 0%. It also gave an activity at 100 µM [4] of 0%, an activity at 0.01 µM [5] of 91% and an activity at 0.01 µM [6] of 37.2%. The activity at 0.01 µM (24 h, read-out: cm.bpm.24hrs) was 53.5%, the activity at 0.01 µM [7] was 43% and the activity at 0.01 µM [8] was 53.2%. For the same molecule, the activity at 0.1 µM [5] was 31.1%, the activity at 0.1 µM [6] was 82.3% and the activity at 0.1 µM (24 h, read-out: cm.bpm.24hrs) was 54.4%. The activity at 0.1 µM [7] was 43.8%, the activity at 0.1 µM [8] was 53.7% and the activity at 1 µM [5] was 32%. It also gave an activity at 1 µM [6] of 67.1%, an activity at 1 µM (24 h, read-out: cm.bpm.24hrs) of 49.6% and an activity at 1 µM [7] of 51%. The activity at 1 µM [8] was 47.2%, the activity at 10 µM [5] was 54.4% and the activity at 10 µM [6] was 55%. The activity at 10 µM (24 h, read-out: cm.bpm.24hrs) was 48.7%, the activity at 10 µM [7] was 58.5% and the activity at 10 µM [8] was 51.4%. The activity at 100 µM [5] was 0%, the activity at 100 µM [6] was 0% and the activity at 100 µM (24 h, read-out: cm.bpm.24hrs) was 0%. The activity at 100 µM [7] was 0% and the activity at 100 µM [8] was 0%.
